According to patent US20250381173A1, “Long-Lasting Anaesthetic Formulation” (BERTIE INTERNATIONAL AB, priority 2022, published 2025):
“And” between values parts separate entries of the source, which are not always exact repeats. Equal entries are not always repeated.

Assays:
female rats [1] = assay: Local anesthesia pilot study, prick (sensitivity) test after one s.c. injection; assay type: in vivo, Sprague Dawley rats; conditions: data not shown
Experimental: (§1) In order to evaluate administration of local anesthesia in a sensitivity test in female rats a pilot- and an efficacy study was performed.
(§2) Sprauge Dawley rats (females, 10 weeks) were acquired from Janvier Europe. Rats were housed in the animal facility, Medicon Village, Lund, Sweden. The rats were kept at 12 h light/dark cycles in polystyrene cages (type III cages, 2-3 rats per cage) comprising wood shavings. The rats were fed with standard rodent diet and water ad libitum. The rats were acclimatized for approximately one week before initiation of the experiment. The rats were identified by a marking on the tail with a permanent marker day 1.
Formulation of reference anesthesia ropivacaine, was prepared such that the pH of the composition and the concentration and dose of ropivacaine where essentially identical to the compositions of the invention. The concentration of Ropivacaine was 5 mg/ml in the formulation and was administered at a dose of 1 mg/kg bodyweight in 2 animals, 0.25 mg/kg bodyweight in 2 animals; and placebo PBS (phosphate buffered saline) in 2 animals. The vehicle and reference anesthesia were administrated s. c. (subcutaneous) in one single injection at time 0.
The rats were shaved at the back and habituated to the experimental environment for 30 minutes prior to the testing. […] The rat's reaction in the form of wrinkling of the skin was evaluated by ocular inspection.

[2] = Impurity analysis: 2,6-dimethylaniline (Impurity H) by UPLC-UV and UPLC-UV-MS; assay type: physicochemical
Experimental: Qualitative LC-analyzes were performed on samples from the stage in the formulation procedure after ropivacaine was added. LC analyzes with ultraviolet light (UV) detection were performed on a Thermo Fischer Scientific Vanquish UPLC instrument employing a Waters BEH C18 1.7 um 2.1*150 mm chromatographic column at 0.3 mL/min flow rate and otherwise method according to European pharmacopoeia 11.1, monograph 01/2017:2335 ‘Ropivacaine Hydrochloride Monohydrate’.
LC analyzes with UV and MS detection were carried out on a Waters Acquity UPLC Quattro Micro MS-instrument with electrospray ionisation (ESI) in positive-negative switching mode. The method used was based on monograph 01/2017:2335 as above, however, the mobile phase was changed to a MS-compatible one; instead of phosphate buffer 0.1% NH3/MeCN with gradient elution was used.
One of the impurities of ropivacaine specified in the pharmacopeial monograph Eu Pharm 11.1, 01/2017:2335 as Impurity H, the carcinogenic 2,6-dimethylaniline, was analyzed in prepared formulations by LC-UV and LC-UV-MS against 2,6-dimethylaniline reference material.
Specified Impurity H of ropivacaine of Ph. Eur. 11.1, 01/2017:2335-2,6-dimethylaniline—was not detected (<0.05 area-%), neither in the ropivacaine reference standard nor in the formulated samples of ropivacaine of microwave heated triethanolamine, as analyzed by UPLC-UV (240 nm) and UPLC-UV-MS (Full scan m/z 50-800). As such, it was concluded that 2,6-dimethylaniline is not produced in the treatment of a formulation of the present disclosure.

sciatic nerve = assay: In vivo test 3: sensitivity test (tweezer), motor and sensor block after s.c. injection close to the sciatic nerve; set-up: species or system Wistar albino rats
Experimental: Male Wistar albino rats, weighing 200-250 g, obtained from SYLAB Experimental Animals Laboratory, were used in the experiments. The animals were kept in a 12 hour light-12 hour dark light period under standard conditions and fed with standard pellet water (ad libitum). All studies were carried out in accordance with international ethical rules, without abusing animal rights.
Formulations used were the same as in Example 2, with additional storage. The formulations were stored for 7 months at different temperatures. At first, the formulations were stored in the freezer for 6 months. Thereafter there were alterations in temperature storage; the formulations were iteratively stored in room temperature and in the fridge before use.
The compositions were administrated s. c. in one single injection at time 0. The compositions were administrated to a position in close proximity to the sciatic nerve. • Group 1: Ropivacaine 7.5 mg/ml, 1.1-1.2 ml. Total=at least 8.25 mg ropivacaine. This composition is commercial ropivacaine (Ropivacaina Inibsa, injectable solution). • Group 2: Ropivacaine 4 mg/ml, 2 ml, pH 5 (Test 1). Total=8 mg ropivacaine.
The sensitivity test was performed at 9 different time points within 9 hours after administration of the test item (1 h, […], 2 h, 3 h, 4 h, 5 h, 6 h, 7 h, 8 h and 9 h) by touching each rat with a tweezer. The rat's reaction in the form of wrinkling of the skin was evaluated by ocular inspection, giving each monitored response a value of 0 (no response), 0.5 (low response) or 1 (response).

female rats [3] = assay: Local anesthesia efficacy test, prick test after one s.c. injection; assay type: in vivo, Sprague Dawley rats; conditions: 0.25 mg/kg s.c.
Experimental: as §1, §2
Formulation of reference anesthesia Ropivacaine, was prepared in the same way as for the pilot study.
The rats were shaved at the back and habituated to the experimental environment for 30 minutes prior to the testing. The sensitivity test was performed at 6 different time points within 6 hours after administration of the test item (30 min, 1 h, 2 h, 3 h, 4 h, 5 h) by touching each rat with a needle. The rat's reaction in the form of wrinkling of the skin was evaluated by ocular inspection, giving each monitored response a value of 0 (no response) or 1 (response).

[4] = individual rat, score 0, 0.5 or 1, 0 h
[5] = individual rat, score 0, 0.5 or 1, 1 h
[6] = individual rat, score 0, 0.5 or 1, 2 h
[7] = individual rat, score 0, 0.5 or 1, 3 h
[8] = individual rat, score 0, 0.5 or 1, 4 h
[9] = individual rat, score 0, 0.5 or 1, 5 h
[10] = individual rat, score 0, 0.5 or 1, 6 h
[11] = individual rat, score 0, 0.5 or 1, 7 h

## CCCN1CCCC[C@H]1C(=O)Nc1c(C)cccc1C [Ropivacaine, ropivacaine]
Female rats [1]; 0.25 mg/kg bodyweight s.c.
  duration of the anesthetic effect: 2 h
Female rats [1]; 1 mg/kg bodyweight s.c.
  duration of the anesthetic effect: 5 h
[2]; Full scan m/z 50-800
  Impurity H (2,6-dimethylaniline), UPLC-UV-MS: Not detected
[2]; UV 240 nm
  Impurity H (2,6-dimethylaniline), UPLC-UV: Not detected
[2]; not detected, UPLC-UV (240 nm) and UPLC-UV-MS
  2,6-dimethylaniline (Impurity H) level: < 0.05 area-%
Sciatic nerve; group average
  Loss Motor block, average: 3.3 h
  loss of Sensor block, average: 4.3 h
Sciatic nerve; individual rat
  Loss Motor block: 4 h (4×) and 3 h (2×)
  loss of Sensor block: 6 h (2×) and 3 h (2×) and 4 h (2×)
Sciatic nerve; [4]
  Motor Block, test time 0 h: 1 (5×) and 0.5
  Sensor Block, test time 0 h: 1
Sciatic nerve; [5]
  Motor Block, test time 1 h: 1 (5×) and 0.5
  Sensor Block, test time 1 h: 1
Sciatic nerve; [6]
  Motor Block, test time 2 h: 1 (4×) and 0.5 (2×)
  Sensor Block, test time 2 h: 1
Sciatic nerve; [7]
  Motor Block, test time 3 h: 0.5 and 0 (3×) and 1 (2×)
  Sensor Block, test time 3 h: 1 (4×) and 0 (2×)
Sciatic nerve; [8]
  Motor Block, test time 4 h: 0
  Sensor Block, test time 4 h: 1 and 0 (4×) and 0.5
Sciatic nerve; [9]
  Motor Block, test time 5 h: 0
  Sensor Block, test time 5 h: 1 and 0 (2×) and 0.5
Sciatic nerve; [10]
  Motor Block, test time 6 h: 0
  Sensor Block, test time 6 h: 0
Sciatic nerve; [11]
  Motor Block, test time 7 h: 0
  Sensor Block, test time 7 h: 0
Female rats [3]; group of 3 rats
  Average value of first response: 1.8 h
Female rats [3]; individual rat, 0 = no response (anesthesia), 1 = response, 0.5 mg/ml, 0.5 h, 0.25 mg/kg
  Prick test response, 0.5 h: 0 (2×) and 1
Female rats [3]; individual rat, 0 = no response (anesthesia), 1 = response, 1 h, 0.25 mg/kg
  Prick test response, 1 h: 0 (2×) and 1
Female rats [3]; individual rat, 0 = no response (anesthesia), 1 = response, 2 h, 0.25 mg/kg
  Prick test response, 2 h: 1 (2×) and 0
Female rats [3]; individual rat, 0 = no response (anesthesia), 1 = response, 3 h
  Prick test response, 3 h: 1
Female rats [3]; individual rat, 0 = no response (anesthesia), 1 = response, 4 h, 0.25 mg/kg
  Prick test response, 4 h: 1 (2×) and 0
Female rats [3]; individual rat, 0 = no response (anesthesia), 1 = response, 5 h
  Prick test response, 5 h: 1
